Reference: patent US20100056526A1, “HETEROMONOCYCLIC COMPOUND AND USE THEREOF” (Takeda Pharmaceutical Company Limited, priority 2006, published 2010)

Experiments:
human AT1 receptor = biological target: T1, human AT1 receptor (Homo sapiens, UniProt P30556); assay: Binding assay using human AT1 receptor-expressing CHO-K1 cell membrane fraction ([125I]-angiotensin II); conditions: 22.5 pM [125I]-angiotensin II, 9 μg AT1 membrane, 1 hr room temperature; read-out: AT1 receptor binding inhibitory action (IC50 (nM))
T1 construct: expressed in transfected cells; host or cells: CHO-K1
T1 sequence (P30556 1-359): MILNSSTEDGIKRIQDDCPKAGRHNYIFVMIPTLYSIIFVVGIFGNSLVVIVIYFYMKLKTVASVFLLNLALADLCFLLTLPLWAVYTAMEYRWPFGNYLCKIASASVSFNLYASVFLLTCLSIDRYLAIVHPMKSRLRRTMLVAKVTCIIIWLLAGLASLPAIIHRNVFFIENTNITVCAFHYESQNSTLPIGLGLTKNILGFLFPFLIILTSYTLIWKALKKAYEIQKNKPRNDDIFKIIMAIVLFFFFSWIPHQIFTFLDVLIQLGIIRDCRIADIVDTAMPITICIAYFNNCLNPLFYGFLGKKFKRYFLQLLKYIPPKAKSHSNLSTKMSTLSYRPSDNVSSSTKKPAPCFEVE
Experimental: The membrane fraction for human AT1 receptor binding assay was prepared as follows. CHO-K1 cell capable of stable expression of human AT1 receptor was cultured, recovered, suspended in homogenize buffer (10 mM NaHCO3 (pH 7.4), 5 mM EDTA, 1×Complete EDTA free) [manufactured by Roche, Switzerland], and homogenized. The homogenate was centrifuged at low-speed (900×g, 10 min, 4° C.), and the supernatant was recovered and ultracentrifuged (90,000×g, 1 hr, 4° C.). The supernatant was discarded, and the pellets were resuspended in resuspension buffer (50 mM Tris (pH 7.4), 1 mM EDTA, 1×Complete EDTA free).
The binding assay was performed in the presence of 22.5 pM [^125I]-angiotensin II [manufactured by PerkinElmer, USA], 9 μg of AT1 membrane and test compound in 100 μL (total reaction volume) of reaction buffer (50 mM Tris (pH 7.4), 10 mM MgCl2 supplemented or not supplemented with 0.3 mg/mL fatty acid-free bovine serum albumin [manufactured by Wako Pure Chemical Industries, Ltd., Japan]). The reaction mixture was incubated in 96 well polypropylene plate for 1 hr at room temperature, and the reaction was quenched by rapid filtration (96 well cell harvester) through a GF/C filter treated with wash buffer (50 mM Tris (pH 7.4)). Subsequently, the filter was washed 5 times with 0.3 mL of ice-cooled wash buffer. The filter was air-dried, and [^125I]-angiotensin II binding radioactivity was assayed with Top Count scintillation counter. Total binding was measured in the presence of 1% DMSO and nonspecific binding was measured in the presence of 1 μM CV-11974. The binding data was analyzed by GraphPad Prism program and the IC50 value (compound concentration showing 50% of the maximum value of inhibition percent) of the test compound was calculated.

PPARγ = biological target: T2, PPARγ (Homo sapiens, UniProt P37231); assay: Evaluation of PPARγ activating action (luciferase reporter in PPARγ:RXRα:4ERPP/CHO-K1 cells); assay type: cell-based; conditions: CHO-K1, 24 h; test compound 10^−6 M; luciferase activity relative to control compound X (1 μM) = 100%, non-administration group = 0%; read-out: PPARγ activating action (activation % (10^−6 M))
T2 construct: expressed in transfected cells; host or cells: CHO-K1
T2 sequence (P37231 1-477 isoform P37231-2): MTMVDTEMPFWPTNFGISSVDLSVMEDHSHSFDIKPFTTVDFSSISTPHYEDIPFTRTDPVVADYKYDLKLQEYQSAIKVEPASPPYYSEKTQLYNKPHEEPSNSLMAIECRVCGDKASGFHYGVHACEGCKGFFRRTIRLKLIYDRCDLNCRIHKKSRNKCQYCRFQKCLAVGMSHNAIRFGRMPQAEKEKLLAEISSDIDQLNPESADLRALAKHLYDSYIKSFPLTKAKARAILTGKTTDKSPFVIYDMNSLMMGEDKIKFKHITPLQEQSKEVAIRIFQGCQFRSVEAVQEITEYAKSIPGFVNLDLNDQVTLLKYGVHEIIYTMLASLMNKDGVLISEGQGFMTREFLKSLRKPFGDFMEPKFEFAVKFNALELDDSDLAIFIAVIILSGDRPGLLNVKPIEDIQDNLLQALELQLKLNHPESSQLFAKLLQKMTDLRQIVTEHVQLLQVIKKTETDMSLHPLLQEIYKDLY
T2 sequence (P19793 1-462 partner): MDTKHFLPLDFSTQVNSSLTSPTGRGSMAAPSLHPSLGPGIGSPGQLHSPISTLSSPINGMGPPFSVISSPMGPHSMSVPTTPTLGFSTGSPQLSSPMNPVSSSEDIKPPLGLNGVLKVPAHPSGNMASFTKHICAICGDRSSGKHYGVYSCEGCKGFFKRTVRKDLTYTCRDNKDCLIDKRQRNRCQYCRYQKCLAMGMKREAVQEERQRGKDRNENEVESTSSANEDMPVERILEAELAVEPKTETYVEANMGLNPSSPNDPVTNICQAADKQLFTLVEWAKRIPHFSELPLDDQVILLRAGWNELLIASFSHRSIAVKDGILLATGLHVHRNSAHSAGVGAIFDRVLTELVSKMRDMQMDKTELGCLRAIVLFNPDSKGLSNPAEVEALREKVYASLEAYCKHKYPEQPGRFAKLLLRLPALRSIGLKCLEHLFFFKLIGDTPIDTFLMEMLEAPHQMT
Experimental: PPARγ:RXRα:4ERPP/CHO-K1 cells obtained in the following Reference Example 5 were cultured in F12 medium [manufactured by INVITROGEN, USA] containing 10% fetal bovine serum [manufactured by MOREGATE, Australia], seeded in a 96-well half area white plate [manufactured by Corning Coster Corporation, USA] at the density of 5×10^3 cells/well and cultured in a CO2 gas incubator at 37° C. overnight.
Then the medium was removed from the 96-well half area white plate, 45 μl of Ham's F12 medium containing 0.1% fatty acid-free bovine serum albumin (BSA) and 5 μl of test compound were added, and the cells were cultured in a CO2 gas incubator at 37° C. for 1 day. The medium was removed and 20 μl of PicaGene 7.5 [manufactured by TOYO INK MFG. CO., LTD.,.Japan] diluted 2-fold with HBSS (HANKS' BALANCED SALT SOLUTION) [manufactured by BIO WHITTAKER, USA] was added. After stirring, the luciferase activity was determined using 1420 ARVO Multilabel Counter [manufactured by PerkinElmer, USA].
The percent (%) was calculated from the luciferase activity of each test compound when the luciferase activity of the control compound (compound X: 5-[3-(4-{[2-(2-furyl)-5-methyl-1,3-oxazol-4-yl]methoxy}-3-methoxyphenyl)propyl]-1,3-oxazolidine-2,4-dione) (1 μM) was 100% and that of the test compound non-administration group was 0%.
A CHO-K1 cell cultured in a 150 cm^2 cell culture flask [manufactured by Corning Costar Corporation, USA] containing Ham's F12 medium [manufactured by INVITROGEN, USA] supplemented with 10% fetal bovine serum [manufactured by INVITROGEN, USA] was scraped by treating with 0.5 g/L trypsin-0.2 g/L EDTA (ethylenediaminetetraacetic acid) [manufactured by Life Technologies, Inc., USA], and then the cell was washed with PBS (Phosphate-buffered saline) [manufactured by INVITROGEN, USA], centrifuged (1000 rpm, 5 minutes) and suspended in PBS. Subsequently, DNA was introduced into the cell under the conditions shown below using GENE PULSER [manufactured by Bio-Rad Laboratories, USA].
Namely, to a cuvette having a 0.4 cm gap were added 8×10^6 cells and 10 μg of plasmid pVgRXR2-hPPARγ obtained in Reference Example 4 and 10 μg of reporter plasmid pGL3-4ERPP-TK neo obtained in Reference Example 3, which was subjected to electroporation at the voltage of 0.25 kV under the capacitance of 960 μF. Subsequently, the cell was transferred into a F12 medium containing 10% fetal bovine serum and cultured for 24 hours, and then the cell was scraped again and centrifuged, and then suspended in Ham's F12 medium containing 10% fetal bovine serum supplemented with 500 μg/ml of Geneticin [manufactured by INVITROGEN, USA] and 250 μg/ml of Zeocin [manufactured by INVITROGEN, USA]. The obtained suspension was diluted to the density of 10^4 cells/ml and inoculated in a 96-well plate [manufactured by Corning Costar Corporation, USA], which was cultured in a CO2 gas incubator at 37° C., whereby obtaining a Geneticin- and Zeocin-resistant transformant.
Subsequently, after the transformant cell line thus obtained was cultured in a 24-well plate [manufactured by Corning Costar Corporation, USA], a cell line in which the luciferase was expressed and induced, i.e., PPARγ:RXRα:4ERPP/CHO-K1 cell was selected by the addition of 10 μM pioglitazone hydrochloride.

IC50 (human AT1 receptor) [nM]	activation at 1 µM (PPARγ) [%]	Structure (SMILES)
0.9	22.2	CCCc1nc(CC)n(-c2ccc(OC3CCCC(O)C3)cc2)c(=O)c1Cc1ccc(-c2ccccc2-c2noc(=O)[nH]2)cc1 (stereo not drawn) [Example 422, 2-ethyl-3-{4-[(3-hydroxycyclohexyl)oxy]phenyl}-5-{[2′-(5-oxo-4,5-dihydro-1,2,4-oxadiazol-3-yl)biphenyl-4-yl]methyl}-6-propylpyrimidin-4(3H)-one]
1.2	62.9	CCCc1nc(CC)n(-c2ccc(OC(C)(C)C(C)=O)cc2)c(=O)c1Cc1ccc(-c2ccccc2-c2noc(=O)[nH]2)cc1 [Example 445, 3-[4-(1,1-dimethyl-2-oxopropoxy)phenyl]-2-ethyl-5-{[2′-(5-oxo-4,5-dihydro-1,2,4-oxadiazol-3-yl)biphenyl-4-yl]methyl}-6-propylpyrimidin-4 (3H)-one]
1.8	18.1	CCCc1nc(CC)n(-c2ccc(OC3(COC)CCCC3)cc2)c(=O)c1Cc1ccc(-c2ccccc2-c2noc(=O)[nH]2)cc1 [Example 389, 2-ethyl-3-(4-{[1-(methoxymethyl)cyclopentyl]oxy}phenyl)-5-{[2′-(5-oxo-4,5-dihydro-1,2,4-oxadiazol-3-yl)biphenyl-4-yl]methyl}-6-propylpyrimidin-4(3H)-one]
1.8	33.5	CCCc1nc(C)n(-c2ccc(OC(C)CF)cc2)c(=O)c1Cc1ccc(-c2ccccc2-c2noc(=O)[nH]2)cc1 (stereo not drawn) [Example 277, 3-[4-(2-fluoro-1-methylethoxy)phenyl]-2-methyl-5-{[2′-(5-oxo-4,5-dihydro-1,2,4-oxadiazol-3-yl)biphenyl-4-yl]methyl}-6-propylpyrimidin-4(3H)-one]
2.1	–	CCCc1nc(C(F)F)n(-c2ccc(OC)cc2)c(=O)c1Cc1ccc(-c2ccccc2-c2noc(=O)[nH]2)cc1 [Example 410]

The next lines start with the compound.

Structure (SMILES)	IC50 (human AT1 receptor) [nM]	activation at 1 µM (PPARγ) [%]
CCCc1nc(C)n(-c2ccc(O[C@@H]3C[C@@H](C)O[C@@H](C)C3)cc2)c(=O)c1Cc1ccc(-c2ccccc2-c2noc(=O)[nH]2)cc1F [Example 338, 3-(4-{[(2R,4s,6S)-2,6-dimethyltetrahydro-2H-pyran-4-yl]oxy}phenyl)-5-{[3-fluoro-2′-(5-oxo-4,5-dihydro-1,2,4-oxadiazol-3-yl)biphenyl-4-yl]methyl}-2-methyl-6-propylpyrimidin-4(3H)-one]	1.8	32.5
CCCCc1nc(CF)n(Cc2ccccc2)c(=O)c1Cc1ccc(-c2ccccc2-c2noc(=O)[nH]2)cc1 [Example 103, 3-benzyl-6-butyl-2-(fluoromethyl)-5-{[2′-(5-oxo-4,5-dihydro-1,2,4-oxadiazol-3-yl)biphenyl-4-yl]methyl}pyrimidin-4(3H)-one]	1.5	50.2
CCCc1nc(CC)c(-c2ccc(OCC3CC3)nc2)c(=O)n1Cc1ccc(-c2ccccc2-c2noc(=O)[nH]2)cc1 [Example 500, 5-[6-(cyclopropylmethoxy)pyridin-3-yl]-6-ethyl-3-{[2′-(5-oxo-4,5-dihydro-1,2,4-oxadiazol-3-yl)biphenyl-4-yl]methyl}-2-propylpyrimidin-4(3H)-one]	2.7	35.9
CCCCc1nc(COC)n(CC(C)(C)C)c(=O)c1Cc1ccc(-c2ccccc2-c2noc(=O)[nH]2)cc1 [Example 51, 6-butyl-3-(2,2-dimethylpropyl)-2-(methoxymethyl)-5-{[2′-(5-oxo-4,5-dihydro-1,2,4-oxadiazol-3-yl)biphenyl-4-yl]methyl}pyrimidin-4(3H)-one]	1.5	19.6
CCCc1nc(C)c(-c2ccc(OC(C)C)cc2)c(=O)n1Cc1ccc(-c2ccccc2-c2noc(O)n2)cc1 [Example 28, 5-(4-isopropoxyphenyl)-6-methyl-3-{[2′-(5-oxo-4,5-dihydro-1,2,4-oxadiazol-3-yl)biphenyl-4-yl]methyl}-2-propylpyrimidin-4(3H)-one]	1.6	16.2
CCCc1nc(CC)c(CN2CCOCC2)c(=O)n1Cc1ccc(-c2ccccc2-c2noc(=O)[nH]2)cc1 [Example 455, 6-ethyl-5-(morpholin-4-ylmethyl)-3-{[2′-(5-oxo-4,5-dihydro-1,2,4-oxadiazol-3-yl)biphenyl-4-yl]methyl}-2-propylpyrimidin-4(3H)-one]	2	16
